Data set [1] deals with Plasmodium falciparum. Nature of the data set: Antimalarial activity after 24 hrs against Plasmodium falciparum D6 infected type A+ human erythrocytes by [3H]hypoxanthine uptake. Format: functional. The note with it: D6, read-out: ED50.
Data set [2] concerns Plasmodium falciparum. Nature of the data set: Antimalarial activity after 24 hrs against Plasmodium falciparum W2 infected in type A+ human erythrocytes by [3H]hypoxanthine uptake. Particulars: W2, read-out: ED50. The format is functional.
The nature of data set [3]: Selectivity index, ratio of ED50 for human KB cells to ED50 for Plasmodium falciparum D6. The format is toxicity, cell-based. The note with it: read-out: Ratio ED50.
Data set [4] in a line: Selectivity index, ratio of ED50 for human KB cells to ED50 for Plasmodium falciparum W2. The format is toxicity, cell-based. The note with it: read-out: Ratio ED50.
A short description of data set [5]: Cytotoxicity against human BCA1 cells after 3 days by sulforhodamine B assay. The format is functional. Particulars: BCA1, 72 h, read-out: ED50 (the source's name). In general terms: The SRB assay estimates cell density from bound dye.
The subject of data set [6] is HT-1080. Description: Cytotoxicity against human HT1080 cells after 3 days by sulforhodamine B assay. Format: functional. The note with it: HT-1080, 72 h, read-out: ED50 (the source's name).
A short description of data set [7]: Cytotoxicity against human LUC1 cells after 3 days by sulforhodamine B assay. The format is functional. Particulars: LUC1, 72 h, read-out: ED50 (the source's name).
The subject of data set [8] is SK-MEL-2. Nature of the data set: Cytotoxicity against human SK-MEL-2 cells after 3 days by sulforhodamine B assay. Format: functional. Particulars: SK-MEL-2, 72 h, read-out: ED50 (the source's name).
A short description of data set [9]: Cytotoxicity against human Col1 cells after 3 days by sulforhodamine B assay. The format is functional. Particulars: Col1, 72 h, read-out: ED50 (the source's name).
The test system of data set [10] is KB. Nature of the data set: Cytotoxicity against human KB cells after 3 days by sulforhodamine B assay. The format is functional. Particulars: 72 h, read-out: ED50 (the source's name).
The nature of data set [11]: Cytotoxicity against human KBV1 cells after 3 days by sulforhodamine B assay. Format: functional. The note with it: KB-V1, 72 h, read-out: ED50 (the source's name).
Data set [12] relates to P388. Description: Cytotoxicity against mouse P388 cells after 3 days by sulforhodamine B assay. The note with it: P388, 72 h, read-out: ED50 (the source's name). Format: functional.
For data set [13], the system named is A-431. Description: Cytotoxicity against human A431 cells after 3 days by sulforhodamine B assay. The format is functional. Particulars: A-431, 72 h, read-out: ED50 (the source's name).
In data set [14] the test system is LNCaP. Nature of the data set: Cytotoxicity against human LNCAP cells after 3 days by sulforhodamine B assay. The format is functional. The note with it: 72 h, read-out: ED50 (the source's name).
Data set [15] relates to ZR-75-1. Description: Cytotoxicity against human ZR-75-1 cells after 3 days by sulforhodamine B assay. The format is functional. The note with it: ZR-75-1, 72 h, read-out: ED50 (the source's name).
A short description of data set [16]: Cytotoxicity against human U373 cells after 3 days by sulforhodamine B assay. The format is functional, U-373MG ATCC. The note with it: U373 MG, 72 h, read-out: ED50 (the source's name).

The results in this text go back to ChEMBL document CHEMBL1148188, “Cytotoxic and antimalarial alkaloids from the bulbs of Crinum amabile” (J Nat Prod, 1993).

In brackets after ≈: the same amount, converted by molar mass.

On to `OC(c1cc(C(F)(F)F)nc2c(C(F)(F)F)cccc12)C1CCCCN1` (stereo not drawn) [MEFLOQUINE], for which the EC50 in [1] was determined as 0.0073 µg/mL (≈ 0.0193 µM); in data set [2] it was 0.0016 µg/mL (≈ 0.00423 µM). Further, the selectivity ratio in data set [3] is 480; in data set [4] it was 2190.
In the case of `C[C@@H]1CC[C@H]2[C@@H](C)C(=O)O[C@@H]3O[C@@]4(C)CC[C@@H]1[C@]32OO4` [ARTEMISININ], the EC50 in data set [1] is 0.0006 µg/mL (≈ 0.00213 µM). Besides, the selectivity ratio in data set [3] is over 33300; in data set [4], over 40000.
Consider `CCN(CC)CCCC(C)Nc1ccnc2cc(Cl)ccc12` (stereo not drawn) [CHLOROQUINE], for which the EC50 in data set [1] turned out to be 0.0013 µg/mL (≈ 0.00406 µM); in data set [2], 0.0112 µg/mL (≈ 0.035 µM).
As for `O[C@H]1[C@H]2c3cc4c(cc3CN3CCC(=C[C@@H]1O)[C@H]23)OCO4` [LYCORINE], the EC50 stood at 1.6 µg/mL (≈ 5.57 µM) in data set [5]; 0.5 µg/mL (≈ 1.74 µM) in [6]; 0.9 µg/mL (≈ 3.13 µM) in data set [7]; 1.6 µg/mL (≈ 5.57 µM) in data set [8]; 0.8 µg/mL (≈ 2.78 µM) in data set [9]; 0.3 µg/mL (≈ 1.04 µM) in data set [10]. Further, the EC50 is 0.4 µg/mL (≈ 1.39 µM) in [11]; 0.9 µg/mL (≈ 3.13 µM) in data set [12]; 1.3 µg/mL (≈ 4.52 µM) in [13]; 0.5 µg/mL (≈ 1.74 µM) in [14]; 0.9 µg/mL (≈ 3.13 µM) in [15]; 0.3 µg/mL (≈ 1.04 µM) in data set [16]. Besides, the EC50 in [1] was determined as 0.32 µg/mL (≈ 1.11 µM); in data set [2], 0.3 µg/mL (≈ 1.04 µM). Further, the selectivity ratio in [3] and in [4] was 1 throughout.
On to `O[C@@H]1CC[C@H]2N3CC[C@@]2(c2cc4c(cc2C3)OCO4)[C@@H]1O`, for which the EC50 in data set [5], in data set [6], in data set [7], in [8], in data set [9] and in data set [10] was over 20 µg/mL in each case. Further, the EC50 is over 20 µg/mL in data set [11]; over 5 µg/mL in [12]; over 20 µg/mL in [13]; over 20 µg/mL in data set [14]; over 20 µg/mL in data set [15]; over 20 µg/mL in [16].
In the case of `C=C[C@H]1CN2CC[C@H]1C[C@H]2[C@H](O)c1ccnc2ccc(OC)cc12` [QUININE], the EC50 in [1] was found to be 0.0094 µg/mL (≈ 0.029 µM); in data set [2] it was 0.0245 µg/mL (≈ 0.0755 µM). In addition, the selectivity ratio in data set [3] is over 2130; in data set [4], over 820.
With `CO[C@H]1C=C[C@@]23c4cc5c(cc4CN(C[C@@H]2O)[C@H]3C1)OCO5`, the EC50 in data set [5] was found to be 1.4 µg/mL (≈ 4.65 µM); in data set [6], 1.3 µg/mL (≈ 4.31 µM); in data set [7] it was 1.4 µg/mL (≈ 4.65 µM); in data set [8], 5 µg/mL (≈ 16.6 µM); in data set [9], 1 µg/mL (≈ 3.32 µM); in data set [10], 1 µg/mL (≈ 3.32 µM). The EC50 in data set [11] turned out to be 0.6 µg/mL (≈ 1.99 µM); in data set [12], 0.7 µg/mL (≈ 2.32 µM); in data set [13] it was 6.9 µg/mL (≈ 22.9 µM); in [14], 1.5 µg/mL (≈ 4.98 µM); in data set [15], 0.8 µg/mL (≈ 2.65 µM); in [16], 0.9 µg/mL (≈ 2.99 µM). Moreover, the selectivity ratio in [3] and in [4] was 0.4 in each case.
Consider `COC1C=C[C@@]23CCN(Cc4cc5c(cc42)OCO5)[C@@H]3C1` (stereo partly drawn), for which the EC50 in data set [5], in data set [6], in data set [7], in data set [8], in [9] and in data set [10] was over 20 µg/mL in each case. The EC50 in [11] was 19.8 µg/mL (≈ 69.4 µM); in data set [12], over 5 µg/mL; in data set [13], over 20 µg/mL; in [14], over 20 µg/mL; in data set [15], over 20 µg/mL; in data set [16] it was over 20 µg/mL.
For `CO[C@@H]1C[C@H]2N3CC[C@@]2(c2cc4c(cc2C3)OCO4)[C@H]2O[C@@H]12`, the EC50 was 2.8 µg/mL (≈ 9.29 µM) in data set [5]; 1.2 µg/mL (≈ 3.98 µM) in data set [6]; 3.7 µg/mL (≈ 12.3 µM) in data set [7]; 3.2 µg/mL (≈ 10.6 µM) in data set [8]; 2.4 µg/mL (≈ 7.96 µM) in data set [9]; 0.6 µg/mL (≈ 1.99 µM) in [10]. In addition, the EC50 in data set [11] is over 20 µg/mL; in [12], 0.6 µg/mL (≈ 1.99 µM); in data set [13], 4.9 µg/mL (≈ 16.3 µM); in [14] it was 1.7 µg/mL (≈ 5.64 µM); in data set [15] it was 1.8 µg/mL (≈ 5.97 µM); in data set [16], 0.6 µg/mL (≈ 1.99 µM). Further, the values for the EC50 in [1] and in data set [2] were 0.14 µg/mL (≈ 0.465 µM) and 0.18 µg/mL (≈ 0.597 µM), respectively. Further, the selectivity ratio in data set [3] came out at 4; in data set [4], 3.
